Like-named read-outs stand apart in the source and are kept apart here.
Legend:
PP2A = target: T1, PP2A (Mus musculus, UniProt P63330); test: PP2A activity in lysates of metformin-treated primary neurons; type: cell-based; parameters: dose or concentration left out as unconfirmed
T1 construct: treated primary neurons with metformin and analyzed PP2A activity in the cell lysates; endogenous in cells; host or cells: primary neurons
Method: Afterwards PP2A phosphatase activity was determined using a malachite green assay kit (upstate) following the manufacturer's instructions.

AMPK = test: Phosphorylation of AMPK (pThr 172) in primary cortical neurons; type: cell-based, mouse
Method: (§1) Primary cortical neurons were isolated from brain of wt or transgenic (Mapt^tm1(EGFP)klt Tg(MAPT)8cPdav/J; Jackson Laboratory) embryos at day 14.5. Cortices were collected in DMEM (Lonza) and cells were dissociated by incubation with Trypsin/EDTA for 6.5 min at 37° C. Cells were then diluted in neurobasal medium (Gibco-BRL) containing B27 supplement (Gibco BRL). Cells were plated at a density of 4.0×10^5 onto 0.2 mg/ml poly-D-lysin (Sigma) and 2 μg/ml Laminin (Sigma) coated 12 well plates. Neurons were incubated at 37° C. with 8% CO2. One hour after seeding a complete change of medium was performed. Later on, each 96 hours half volumes of the medium were replaced by fresh medium. After 7 days in culture neurons were treated.
(§2) Cells were incubated with the respective substances as follows: Metformin (Sigma) at final concentrations up to 2.5 mM for 1 to >24 hours, okadaic acid (Sigma) at final concentrations from 1 nM to 10 nM for 4 h, Fostricien (Sigma) at final concentration of 1 μM for 4 h and AICAR (cell signalling) at final concentration of 5 mM for 0.5-16 h. For cell treatment without insulin, medium containing B27+insulin supplement was replaced with medium containing B27-supplement without insulin 24 h before treatment. […]
(§3) Cell pellets were homogenized in Magic-Mix (48% UREA, 15 mM Tris-HCL pH 7.5, 8.7% Glycerin, 1% SDS, 0.004% Bromphenolblue, 143 mM Mercaptoethanol), sonicated and boiled for 5 min at 95° C. […] Antibodies used in this study were purchased from the following companies: Tau-5 (Biosource), anti-human PHF pSer202 (Thermo scientific), Tau pSer356 (Biosource), Tau pSer262 (Biosource), Tau pSer396 (Sigma), Actin (Sigma), ACC (cell signalling), ACC pSer79 (cell signalling), phospho-S6 ribosomal protein pSer241/244 (cell signalling), p70S6 Kinase (cell signalling), p70S6K pThr421/pSer424 (cell signalling), mTOR (cell signalling), AMPK (cell signallling, AMPK pThr172 (cell singnaling), HRP-anti-rabbit (Amersham), HRP-anti-mouse (Dianova). The resulting bands were quantified using Imagequant5.2. […]

p70S6kinase = test: Phosphorylation of p70S6kinase in primary cortical neurons; type: cell-based, mouse; settings: 2.5 mM metformin over increasing time intervals
Method: as §1
(§4) Cells were incubated with the respective substances as follows: Metformin (Sigma) at final concentrations up to 2.5 mM for 1 to >24 hours, okadaic acid (Sigma) at final concentrations from 1 nM to 10 nM for 4 h, Fostricien (Sigma) at final concentration of 1 μM for 4 h and AICAR (cell signalling) at final concentration of 5 mM for 0.5-16 h. For cell treatment without insulin, medium containing B27+insulin supplement was replaced with medium containing B27-supplement without insulin 24 h before treatment. 3 groups of 2 mice were treated with or without 5 mg/l metformin in the drinking water.
(§5) Cell pellets were homogenized in Magic-Mix (48% UREA, 15 mM Tris-HCL pH 7.5, 8.7% Glycerin, 1% SDS, 0.004% Bromphenolblue, 143 mM Mercaptoethanol), sonicated and boiled for 5 min at 95° C. Proteins were resolved on 8 or 10% SDS gels and blotted onto PVDF-membranes (Roche). Antibodies used in this study were purchased from the following companies: Tau-5 (Biosource), anti-human PHF pSer202 (Thermo scientific), Tau pSer356 (Biosource), Tau pSer262 (Biosource), Tau pSer396 (Sigma), Actin (Sigma), ACC (cell signalling), ACC pSer79 (cell signalling), phospho-S6 ribosomal protein pSer241/244 (cell signalling), p70S6 Kinase (cell signalling), p70S6K pThr421/pSer424 (cell signalling), mTOR (cell signalling), AMPK (cell signallling, AMPK pThr172 (cell singnaling), HRP-anti-rabbit (Amersham), HRP-anti-mouse (Dianova). The resulting bands were quantified using Imagequant5.2. Statistical analyses were performed using SigmaStat software package (v 3.0, SPSS, USA). For timecourse or dose-response studies, data were analyses by one-way ANOVA with post hoc Dunnett's or Bonferonni test to accommodate for multiple comparisons. A Student's t-test was used for two-group comparisons, as appropriate.

[1] = 2 mg/ml in the drinking water fed to mice for 6 days; cited from earlier work
ACC = test: Phosphorylation of the AMPK target ACC (Ser79) in primary cortical neurons; type: cell-based, mouse; settings: 2.5 mM metformin, increasing time intervals
Method: as §1, §2, §3

α4-PP2Ac association = target: T2, α4-PP2Ac association (Homo sapiens, UniProt P67775+P78318); test: Co-immunoprecipitation of PP2Ac and V5-tagged α4 in HeLa cell lysates; type: binding; settings: 2.5 mM metformin added to lysates of α4-V5 expressing HeLa cells
T2 construct: expressed in transfected cells; host or cells: HeLa

tau = type: cell-based, mouse
Method: as §1, §4, §5

[2] = dosages applied to patients with Type II Diabetes; cited from earlier work
ribosomal protein S6 = test: Phosphorylation of S6 in rat hepatoma cell line H4IIE; type: cell-based; settings: 2.5 mM, 16 hours
Method: as §5

S6 = test: Brain S6 phosphorylation in mice fed metformin in the drinking water; type: in vivo, mouse; settings: 5 mg/ml in the drinking water for 16-24 days
Method: as §2
Mice were decapitated and brains were rapidly dissected in nitrogen. […]
as §3

GSK3β = test: Phosphorylation of GSK3β (pSer9) in primary cortical neurons; type: cell-based, mouse; settings: 2.5 mM metformin over increasing time intervals
Method: as §1
Cell pellets were homogenized in Magic-Mix (48% UREA, 15 mM Tris-HCL pH 7.5, 8.7% Glycerin, 1% SDS, 0.004% Bromphenolblue, 143 mM Mercaptoethanol), sonicated and boiled for 5 min at 95° C. Proteins were resolved on 8 or 10% SDS gels and blotted onto PVDF-membranes (Roche). […]

primary cortical neurons = test: TUNEL assay on primary cortical neurons; type: cell-based, mouse; settings: increasing concentrations of metformin, concentrations sufficient to induce tau dephosphorylation
Method: Primary neurons were grown on coverslips with a density of 2×10^5 per 12 well. TUNEL assays were performed using TUNEL enzyme (Roche) and TUNEL label (Roche) following the manufacturer's instructions.

[3] = 2.5 mM, different time intervals, observed after 2-4 hours

T1 sequence (P63330 whole entry): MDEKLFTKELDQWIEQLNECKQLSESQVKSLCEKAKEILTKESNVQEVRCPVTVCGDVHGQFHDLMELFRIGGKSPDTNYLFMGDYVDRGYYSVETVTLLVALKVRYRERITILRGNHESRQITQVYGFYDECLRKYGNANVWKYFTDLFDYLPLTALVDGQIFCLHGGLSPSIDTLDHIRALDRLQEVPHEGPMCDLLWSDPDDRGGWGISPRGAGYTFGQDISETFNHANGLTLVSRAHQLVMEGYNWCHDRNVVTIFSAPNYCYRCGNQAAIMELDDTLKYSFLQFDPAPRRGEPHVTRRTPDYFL
T2 sequence (P78318 whole entry): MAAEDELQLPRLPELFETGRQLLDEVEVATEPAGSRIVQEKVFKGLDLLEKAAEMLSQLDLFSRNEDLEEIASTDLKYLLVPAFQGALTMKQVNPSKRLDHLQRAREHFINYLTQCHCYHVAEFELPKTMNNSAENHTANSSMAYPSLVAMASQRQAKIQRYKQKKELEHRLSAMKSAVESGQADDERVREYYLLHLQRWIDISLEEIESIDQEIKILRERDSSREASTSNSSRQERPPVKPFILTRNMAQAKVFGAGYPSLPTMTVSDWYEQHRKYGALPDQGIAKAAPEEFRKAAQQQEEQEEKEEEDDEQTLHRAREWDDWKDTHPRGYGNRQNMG
T2 sequence (P67775 whole entry): as the sequence (P63330 whole entry) above, with L5V counted along it

## CN(C)C(=N)N=C(N)N [metformin, Metformin]
PP2A
  phosphatase (PP2A) activity in cell lysates: significantly increased phosphatase activity
AMPK; 2.5 mM for 10 hours
  AMPK phosphorylation (pThr 172): does induce AMPK phosphorylation significantly
AMPK; 2.5 mM, shorter intervals of incubation than 10 hours
  AMPK phosphorylation (pThr 172): no significant effect
AMPK; smaller amounts than 2.5 mM for 24 hours
  AMPK phosphorylation (pThr 172): no significant effect
p70S6kinase
  phosphorylation status of p70S6kinase: Results were confirmed
p70S6kinase; listed as Metformin
  phosphorylation status of p70S6kinase: decrease of pS6kinase phosphorylation
[1]
  level of metformin in the brain: 1000 nM
ACC
  ACC phosphorylation (Ser79): neither metformin (FIG. 4a) nor phenformin (FIG. 12) had an effect
α4-PP2Ac association
  amount of PP2Ac associated with α4: dissociation of α4 from PP2Ac
tau; 10 nM okadaic acid prior to 2.5 mM metformin, 4 hours
  effect on Ser202 phosphorylation of okadaic acid treated cells: no effect
tau; 100 nM, longer treatment (>24 hours)
  phosphorylation of Ser202: decreased slightly
tau; 1 μM fostriecin prior to 2.5 mM metformin, 4 hours
  effect on Ser202 phosphorylation of fostriecin pre-treated cells: did not have any effect
tau; 10 μM, longer treatment (>24 hours)
  phosphorylation of Ser202: significantly reduced
tau; 2.5 mM metformin alone over 4 hours
  phosphorylation of Ser202: decreased significantly
tau; 2.5 mM over time (Ser202, Ser262, Ser356), increasing concentration over 4 hours (Ser202)
  de-phosphorylation of PP2A dependent tau epitopes, dependence on time and dosage: increased with time (FIG. 2a) and dosage
tau; [3]
  phosphorylation of PP2A dependent tau epitope Ser202: significant decrease
  phosphorylation of PP2A dependent tau epitope Ser262: significant decrease
  phosphorylation of PP2A dependent tau epitope Ser356: significant decrease
tau; 2.5 mM, increasing time intervals
  phosphorylation of the PP2A insensitive epitope Ser396: did not change
tau; 2.5 mM, medium without insulin
  dephosphorylation of tau (Ser 202): strong dephosphorylation effect
[2]
  peak plasma concentrations: around 12 μM
Ribosomal protein S6
  ability to dephosphorylate S6: clearly apparent
S6
  brain S6 phosphorylation: significantly de-phosphorylated
GSK3β
  phosphorylation of GSK3β at position Ser 9 (de-phosphorylation activates the enzyme): reduces the phosphorylation
GSK3β; listed as Metformin
  phosphorylation of GSK3β at position Ser 9 (de-phosphorylation activates the enzyme): increases the activity of GSK3β
Primary cortical neurons
  programmed cell death (percentage of apoptotic cells, TUNEL): did not cause a significant increase

Reference: patent publication US20120184624A1, “Treatment of Alzheimer's Disease” (priority 2010, published 2012)
